According to PubChem BioAssay AID1963973 (Molecular Pharmacology Branch, DTP, NCI, 2024):

Tested on: 883617-216-R-J1-PDC tumor spheroids, viability
Assay: Anticancer human tumor 883617-216-R-J1-PDC patient-derived bladder carcinoma cell line growth inhibition [PI3K]
Details: spheroids with HUVEC and MSC; for viability, T/C: stronger effect = lower value
Summary of the method: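 Combination activity was assessed by viability in multicellular tumor spheroids carrying HUVEC and MSC components. Agents were tested with PI3K inhibitors from a Cmax-based top dose (or 10 microM) downward in half-log increments.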

[1] = curve of first compound, second compound 0.0316 µM
[2] = curve of first compound, second compound 0.1 µM
[3] = curve of first compound, second compound 0.316 µM
[4] = curve of first compound, second compound 1 µM
[5] = second compound 0.0316 µM, first compound 0.0316 µM
[6] = second compound 0.0316 µM, first compound 0.1 µM
[7] = second compound 0.0316 µM, first compound 0.316 µM
[8] = second compound 0.0316 µM, first compound 1 µM
[9] = second compound 0.0316 µM, first compound 3.16 µM
[10] = second compound 0.0316 µM, first compound 10 µM
[11] = second compound 0.1 µM, first compound 0.0316 µM
[12] = second compound 0.1 µM, first compound 0.1 µM
[13] = second compound 0.1 µM, first compound 0.316 µM
[14] = second compound 0.1 µM, first compound 1 µM
[15] = second compound 0.1 µM, first compound 3.16 µM
[16] = second compound 0.1 µM, first compound 10 µM
[17] = second compound 0.316 µM, first compound 0.0316 µM
[18] = second compound 0.316 µM, first compound 0.1 µM
[19] = second compound 0.316 µM, first compound 0.316 µM
[20] = second compound 0.316 µM, first compound 1 µM
[21] = second compound 0.316 µM, first compound 3.16 µM
[22] = second compound 0.316 µM, first compound 10 µM
[23] = second compound 1 µM, first compound 0.0316 µM
[24] = second compound 1 µM, first compound 0.1 µM
[25] = second compound 1 µM, first compound 0.316 µM
[26] = second compound 1 µM, first compound 1 µM
[27] = second compound 1 µM, first compound 3.16 µM
[28] = second compound 1 µM, first compound 10 µM
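Further: spheroids exposed to agents for 7 days before the viability read.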

CC(C)NCC(C(=O)N1CCN(c2ncnc3c2C(C)CC3O)CC1)c1ccc(Cl)cc1 (stereo unspecified) + COc1c(OCCCN2CCOCC2)ccc2c3n(c(=NC(=O)c4cnc(N)nc4)nc12)CCN3
IC50 (curve of first compound, second compound 0.00316 µM): 475 nM
IC50 (curve of first compound, second compound 0.01 µM): 167 nM
IC50 [1]: < 31.6 nM
IC50 [2]: < 31.6 nM
IC50 [3]: < 31.6 nM
IC50 [4]: < 31.6 nM
viability, T/C (second compound 0.00316 µM, first compound 0.0316 µM): 89.7%
viability, T/C (second compound 0.00316 µM, first compound 0.1 µM): 67.4%
viability, T/C (second compound 0.00316 µM, first compound 0.316 µM): 59.5%
viability, T/C (second compound 0.00316 µM, first compound 1 µM): 41.5%
viability, T/C (second compound 0.00316 µM, first compound 3.16 µM): 18.4%
viability, T/C (second compound 0.00316 µM, first compound 10 µM): 7.44%
viability, T/C (second compound 0.01 µM, first compound 0.0316 µM): 63.5%
viability, T/C (second compound 0.01 µM, first compound 0.1 µM): 53.7%
viability, T/C (second compound 0.01 µM, first compound 0.316 µM): 45.7%
viability, T/C (second compound 0.01 µM, first compound 1 µM): 26.7%
viability, T/C (second compound 0.01 µM, first compound 3.16 µM): 17.2%
viability, T/C (second compound 0.01 µM, first compound 10 µM): 6.61%
viability, T/C [5]: 44.2%
viability, T/C [6]: 37.1%
viability, T/C [7]: 26.4%
viability, T/C [8]: 27.7%
viability, T/C [9]: 8.87%
viability, T/C [10]: 4.74%
viability, T/C [11]: 22%
viability, T/C [12]: 15%
viability, T/C [13]: 12.2%
viability, T/C [14]: 9.69%
viability, T/C [15]: 5.3%
viability, T/C [16]: 3.5%
viability, T/C [17]: 5.34%
viability, T/C [18]: 5.49%
viability, T/C [19]: 4.1%
viability, T/C [20]: 4.13%
viability, T/C [21]: 3.12%
viability, T/C [22]: 2.45%
viability, T/C [23]: 2.86%
viability, T/C [24]: 3.36%
viability, T/C [25]: 3.4%
viability, T/C [26]: 2.86%
viability, T/C [27]: 3.11%
viability, T/C [28]: 1.47%

Cn1ncc(Cl)c1-c1cc(C(=O)NC(CN)Cc2cccc(F)c2)sc1Cl (stereo unspecified) + CC(Nc1ncnc2nc[nH]c12)c1cc2cccc(Cl)c2c(=O)n1-c1ccccc1
IC50 [1]: 518 nM
IC50 [2]: 443 nM
IC50 [3]: 539 nM
IC50 [4]: 394 nM
IC50 (curve of first compound, second compound 3.16 µM): 257 nM
IC50 (curve of first compound, second compound 10 µM): < 31.6 nM
viability, T/C [5]: 90.3%
viability, T/C [6]: 88.7%
viability, T/C [7]: 58.2%
viability, T/C [8]: 36%
viability, T/C [9]: 13.7%
viability, T/C [10]: 6.6%
viability, T/C [11]: 74.9%
viability, T/C [12]: 83.1%
viability, T/C [13]: 55.2%
viability, T/C [14]: 30.2%
viability, T/C [15]: 12.4%
viability, T/C [16]: 6.85%
viability, T/C [17]: 89%
viability, T/C [18]: 89%
viability, T/C [19]: 63.1%
viability, T/C [20]: 33.9%
viability, T/C [21]: 10.6%
viability, T/C [22]: 7.26%
viability, T/C [23]: 84.4%
viability, T/C [24]: 67.1%
viability, T/C [25]: 57.9%
viability, T/C [26]: 31.8%
viability, T/C [27]: 11.7%
viability, T/C [28]: 6.93%
viability, T/C (second compound 3.16 µM, first compound 0.0316 µM): 86.4%
viability, T/C (second compound 3.16 µM, first compound 0.1 µM): 70.1%
viability, T/C (second compound 3.16 µM, first compound 0.316 µM): 44.6%
viability, T/C (second compound 3.16 µM, first compound 1 µM): 25.6%
viability, T/C (second compound 3.16 µM, first compound 3.16 µM): 13.2%
viability, T/C (second compound 3.16 µM, first compound 10 µM): 5.57%
viability, T/C (second compound 10 µM, first compound 0.0316 µM): 50.3%
viability, T/C (second compound 10 µM, first compound 0.1 µM): 40.3%
viability, T/C (second compound 10 µM, first compound 0.316 µM): 37.1%
viability, T/C (second compound 10 µM, first compound 1 µM): 23%
viability, T/C (second compound 10 µM, first compound 3.16 µM): 10.5%
viability, T/C (second compound 10 µM, first compound 10 µM): 5.07%

CC(C)NCC(C(=O)N1CCN(c2ncnc3c2C(C)CC3O)CC1)c1ccc(Cl)cc1 (stereo unspecified)
viability, T/C (compound 0.0316 µM): 93.7% [middle of 4 runs]
viability, T/C (compound 0.1 µM): 77.3% [middle of 4 runs]
viability, T/C (compound 0.316 µM): 68.3% [middle of 4 runs]
viability, T/C (compound 1 µM): 40.5% [middle of 4 runs]
viability, T/C (compound 3.16 µM): 17.1% [middle of 4 runs]
viability, T/C (compound 10 µM): 7.67% [middle of 4 runs]
IC50 (curve of compound): 591 nM [middle of 4 runs]
